Where a name gives a salt, the structure may show the parent alone.
These molecules were tested against human σ1 receptor (Homo sapiens, UniProt Q99720) (assay: biochemical). Settings: not given.
Chain of human σ1 receptor (Q99720 whole entry): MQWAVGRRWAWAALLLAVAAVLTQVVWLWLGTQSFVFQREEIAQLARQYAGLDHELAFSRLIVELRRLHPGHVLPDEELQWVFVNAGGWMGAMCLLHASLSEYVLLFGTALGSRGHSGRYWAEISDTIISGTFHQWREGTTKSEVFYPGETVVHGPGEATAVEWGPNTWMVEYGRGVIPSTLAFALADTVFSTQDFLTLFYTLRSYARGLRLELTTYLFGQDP
Type: binding
Parameters: μ and σ1 dual binding: key to the marks not given beside the values
`CC1OC2(CCN(CCc3ccccc3)CC2)CN(Cc2cccc(F)c2)C1=O` (centres unmarked) [Example 155, 4-(3-fluorobenzyl)-2-methyl-9-phenethyl-1-oxa-4,9-diazaspiro[5.5]undecan-3-one hydrochloride] was tested, and the Ki was less than 100 nM.
`CC1OC2(CCN(CCc3ccccc3)CC2)CN(c2cccc(C(=O)N(C)C)c2)C1=O.Cl` (centres unmarked) [Example 271, N,N-dimethyl-3-(2-methyl-3-oxo-9-phenethyl-1-oxa-4,9-diazaspiro[5.5]undecan-4-yl)benzamide hydrochloride] was tested, and the “μ and σ1 dual binding” value was “++”.
Work on `COc1cccc(CCN2CCC3(CC2)CN(c2ccccc2F)C(=O)C(C)O3)c1` (centres unmarked) [Example 83, 4-(2-fluorophenyl)-9-(3-methoxyphenethyl)-2-methyl-1-oxa-4,9-diazaspiro[5.5]undecan-3-one hydrochloride] yielded a Ki of less than 100 nM.

Same assay, conditions: read-out: μ and σ1 dual binding
Work on `Oc1cccc(N2CCOC3(CCN(Cc4ccccc4)CC3)C2)c1` [Example 318, 3-(9-benzyl-1-oxa-4,9-diazaspiro[5.5]undecan-4-yl)phenol] yielded a Ki of less than 500 nM.
With `N#CCCN1CC2(CCN(CCc3ccccc3)CC2)OC2(CC2)C1=O` [Example 181, 3-[13-oxo-8-phenethyl-4-oxa-8,12-diazadispiro[2.1.5.3]tridecan-12-yl]propanenitrile hydrochloride] the Ki was greater than 500 nM.
Molecule `CNS(=O)(=O)c1ccc(CCN2CCC3(CC2)CN(c2ccccc2)C(=O)C(C)O3)cc1` (centres unmarked) [Example 107, N-methyl-4-(2-(2-methyl-3-oxo-4-phenyl-1-oxa-4,9-diazaspiro[5.5]undecan-9-yl)ethyl)benzenesulfonamide] has a Ki greater than 500 nM.
`O=C1COC2(CCN(CCc3ccccc3)CC2)CN1c1cccc(O)c1` [Example 288, 4-(3-hydroxyphenyl)-9-phenethyl-1-oxa-4,9-diazaspiro[5.5]undecan-3-one] was tested, and the Ki was less than 500 nM.
Work on `Nc1cccc(CCN2CCC3(CC2)CN(Cc2ccc(C(F)(F)F)cn2)C(=O)CO3)c1` [Example 235, 9-(3-aminophenethyl)-4-((5-(trifluoromethyl)pyridin-2-yl)methyl)-1-oxa-4,9-diazaspiro[5.5]undecan-3-one] yielded a Ki greater than 500 nM.
With `CCC1OC2(CCN(CCc3ccccc3)CC2)CN(c2ccccc2)C1=O` (centres unmarked) [Example 13, 2-ethyl-9-phenethyl-4-phenyl-1-oxa-4,9-diazaspiro[5.5]undecan-3-one] the Ki was less than 100 nM.
For `CC(=O)Nc1cc(CCN2CCC3(CC2)CN(c2ccccc2)C(=O)C(C)O3)ccn1` (centres unmarked) [Example 255, N-(4-(2-(2-methyl-3-oxo-4-phenyl-1-oxa-4,9-diazaspiro[5.5]undecan-9-yl)ethyl)pyridin-2-yl)acetamide hydrochloride], the Ki was greater than 500 nM.
With `c1ccc(CCN2CCC3(CC2)CN(c2ccccc2)CCO3)cc1` [Example 317, 9-phenethyl-4-phenyl-1-oxa-4,9-diazaspiro[5.5]undecane] the Ki was less than 500 nM.
With `CC1CN(Cc2ccccc2)CC2(CCN(CCc3ccccc3)CC2)O1` (centres unmarked) [Example 335, 4-benzyl-2-methyl-9-phenethyl-1-oxa-4,9-diazaspiro[5.5]undecane dihydrochloride] the Ki was less than 100 nM.
`CC1OC2(CCN(CCc3cccc(N)c3)CC2)CN(c2ccccc2)C1=O` (centres unmarked) [Example 226, 9-(3-aminophenethyl)-2-methyl-4-phenyl-1-oxa-4,9-diazaspiro[5.5]undecan-3-one] showed a Ki of less than 100 nM.
Work on `O=C1COC2(CCN(CCc3ccccc3)CC2)CN1c1ccc(F)cc1` [Example 190, 4-(4-fluorophenyl)-9-phenethyl-1-oxa-4,9-diazaspiro[5.5]undecan-3-one] yielded a Ki of less than 500 nM.
Molecule `O=C1COC2(CCN(CCc3ccccc3)CC2)CN1c1ccccc1F` [Example 189, 4-(2-fluorophenyl)-9-phenethyl-1-oxa-4,9-diazaspiro[5.5]undecan-3-one] has a Ki of less than 500 nM.
`c1ccc(CN2CCOC3(CCN(CCc4ccccn4)CC3)C2)cc1` [Example 138, 4-benzyl-9-(2-(pyridin-2-yl)ethyl)-1-oxa-4,9-diazaspiro[5.5]undecane hydrochloride] showed a Ki of less than 100 nM.
`CC1OC2(CCN(CCc3cccc([N+](=O)[O-])c3)CC2)CN(c2ccccc2)C1=O` (centres unmarked) [Example 67, 2-methyl-9-(3-nitrophenethyl)-4-phenyl-1-oxa-4,9-diazaspiro[5.5]undecan-3-one] was tested, and the Ki was greater than 500 nM.
